Consider five compounds from patent US20090181950A1, “Histamine Receptor Antagonists Comprising an Azepin Core” (GLAXO GROUP LIMITED, priority 2006, published 2009).

SMILES strings stand for the structures. Where a name gives a salt, the structure may show the parent alone.

One data set has as its target T1, human H1 receptor (Homo sapiens, UniProt P35367).
T1 construct: expressed in transfected cells
Nature of the data set: Histamine H1 functional antagonist assay (FLIPR): antagonist pA2. Type of data set: cell-based. Here is the method:
The human H1 receptor is cloned using known procedures described in the literature [Biochem. Biophys. Res. Commun., 201(2):894 (1994)]. Chinese hamster ovary (CHO) cells stably expressing the human H1 receptor are generated according to known procedures described in the literature [Br. J. Pharmacol., 117(6):1071 (1996)].
The histamine H1 receptor expressing CHO cells are seeded into non-coated black-walled clear bottom 96-well tissue culture plates as described above.
Following overnight culture, growth medium is removed from each well, washed with 200 μl phosphate buffered saline (PBS) and is replaced with 50 μl loading dye (250 μM Brilliant Black, 1 μM Fluo-4 diluted in Tyrodes buffer+probenecid (145 mM NaCl, 2.5 mM KCl, 10 mM HEPES, 10 mM D-glucose, 1.2 mM MgCl2, 1.5 mM CaCl2, 2.5 mM probenecid, pH adjusted to 7.40 with NaOH 1.0 M)). Cells are incubated for 45 min at 37° C. The loading buffer is removed and the cells are washed as above, and 90 μl of Tyrodes buffer+probenecid is added to each well. 10 μl of test compound, diluted to the required concentration in Tyrodes buffer+probenecid (or 10 μl Tyrodes buffer+probenecid as a control) is added to each well and the plate is incubated for 30 min at 37° C., 5% CO2.
The plates are then placed into a FLIPR™ (Molecular Devices, UK) to monitor cell fluorescence (λex=488 nm, λEM=540 nm) in the manner described in Sullivan et al., (In: Lambert DG (ed.), Calcium Signaling Protocols, New Jersey: Humana Press, 1999, 125-136) before and after the addition of 50 μl histamine over a concentration range of 1 mM-0.1 nM. The resultant concentration response curves are analysed by non-linear regression using a standard four parameter logistic equation to determine the histamine EC50, the concentration of histamine required to produce a response of 50% of the maximum response to histamine. The antagonist pA2 is calculated using the following standard equation: pA2=log(DR−1)−log[B] where DR=dose ratio, defined as EC50antagonist-treated/EC50control and [B]=concentration of antagonist.

Data set [1] is described as follows: CNS penetration by bolus administration. In kind it is in vivo, male CD Sprague Dawley rats. To be noted: 1 mg/kg intravenously, blood and brain at 5 min post-dose. Here is the method:
Compounds are dosed intravenously at a nominal dose level of 1 mg/kg to male CD Sprague Dawley rats. Compounds are formulated in 5% DMSO/45% PEG200/50% water. Blood samples are taken under terminal anaesthesia with isoflurane at 5 min post-dose and the brains are also removed for assessment of brain penetration. Blood samples are taken directly into heparinised tubes. Blood samples are prepared for analysis using protein precipitation and brain samples are prepared using extraction of drug from brain by homogenisation and subsequent protein precipitation. The concentration of parent drug in blood and brain extracts is determined by quantitative LC-MS/MS analysis using compound-specific mass transitions.

T1 sequence (P35367 whole entry): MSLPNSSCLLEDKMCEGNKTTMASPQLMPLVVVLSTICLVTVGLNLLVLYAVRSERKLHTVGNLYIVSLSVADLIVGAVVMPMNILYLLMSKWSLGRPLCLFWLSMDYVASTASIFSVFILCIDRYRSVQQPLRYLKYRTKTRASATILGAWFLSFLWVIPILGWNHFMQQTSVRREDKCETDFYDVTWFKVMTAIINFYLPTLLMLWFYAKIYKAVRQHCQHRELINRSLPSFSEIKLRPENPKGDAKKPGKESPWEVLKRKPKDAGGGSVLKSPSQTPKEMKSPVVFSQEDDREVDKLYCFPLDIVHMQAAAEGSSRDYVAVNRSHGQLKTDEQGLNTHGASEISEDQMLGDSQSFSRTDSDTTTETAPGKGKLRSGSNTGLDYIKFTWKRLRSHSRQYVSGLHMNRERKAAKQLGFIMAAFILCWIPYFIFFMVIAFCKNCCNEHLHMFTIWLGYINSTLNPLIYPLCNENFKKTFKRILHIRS

As to `O=C(O)CCc1ccc2cccc(N3CCN(CCc4ccc(OCCCN5CCCCCC5)cc4)CC3)c2n1` [Example 3, 3-(8-{4-[2-(4-{[3-(Hexahydro-1H-azepin-1-yl)propyl]oxy}phenyl)ethyl]-1-piperazinyl}-2-quinolinyl)propanoic Acid, Formic Acid (1:2)], at human H1 receptor, the Kb was below 10 nM. In addition, the CNS penetration result in data set [1] is “low CNS penetration”.

For `CCCCc1cc(N2CCN(CCc3ccc(OCCCN4CCCCCC4)cc3)CC2)c2nc(CCC(=O)O)ccc2c1` [Example 6, 3-(6-Butyl-8-{4-[2-(4-{[3-(hexahydro-1H-azepin-1-yl)propyl]oxy}phenyl)ethyl]-1-piperazinyl}-2-quinolinyl)propanoic Acid, Formate Salt], on human H1 receptor, the Kb was below 10 nM.

At human H1 receptor, `O=C(O)CCc1ccc2cc(Cc3ccccc3)cc(N3CCN(CCc4ccc(OCCCN5CCCCCC5)cc4)CC3)c2n1` [Example 1, 3-[8-{4-[2-(4-{[3-(Hexahydro-1H-azepin-1-yl)propyl]oxy}phenyl)ethyl]-1-piperazinyl}-6-(phenylmethyl)-2-quinolinyl]propanoic Acid, Formate Salt] gave an antagonist dissociation constant (Kb) below 10 nM. Moreover, the CNS penetration entry in data set [1] is given as “low CNS penetration”.

At human H1 receptor, `O=C(O)CCc1cnc2c(N3CCN(CCc4ccc(OCCCN5CCCCCC5)cc4)CC3)cccc2c1` [Example 5, 3-(8-{4-[2-(4-{[3-(hexahydro-1H-azepin-1-yl)propyl]oxy}phenyl)ethyl]-1-piperazinyl}-3-quinolinyl)propanoic Acid, Formic Acid Salt] showed a Kb below 100 nM.

`CCc1cc(N2CCN(CCc3ccc(OCCCN4CCCCCC4)cc3)CC2)c2nc(CCC(=O)O)ccc2c1` [Example 2, 3-(6-Ethyl-8-{4-[2-(4-{[3-(hexahydro-1H-azepin-1-yl)propyl]oxy}phenyl)ethyl]-1-piperazinyl}-2-quinolinyl)propanoic Acid, Formate Salt] had a Kb at human H1 receptor below 10 nM. For the same compound, the CNS penetration result in data set [1] is listed as “low CNS penetration”.
